Data published in patent publication US6339044B1, “N-P-Cyanoaryl nitrogen-containing heterocycles having pendent sulfur-containing groups” (Bayer Aktiengesellschaft, priority 1993, dated 2002).

Assays:
wheat [1] = assay: Pre-emergence test, wheat; type: in vivo; conditions: 60 g per hectare, after three weeks, cultivated plant
Protocol: (§1) To prepare an expedient active compound preparation, 1 part by weight of active compound is mixed with the specified amount of solvent, the specified amount of emulsifier is added and the concentrate is diluted with water to the desired concentration.
Seeds of the test plants are sown in standard soil and are watered after 24 hours with the active compound preparation. The amount of water per unit area is expediently kept constant during this. The active compound concentration in the preparation is not important, only the application rate of the active compound per unit area is critical. After three weeks, the degree of damage of the plants is evaluated in % damage in comparison with the development of the untreated control. In the evaluation:
(§2) 0% denotes no effect (as untreated control)
(§3) 100% denotes total destruction

wheat [2] = assay: Post-emergence test, wheat; type: in vivo; conditions: 30 g per hectare, after three weeks, cultivated plant
Protocol: as §1
(§4) Test plants which have a height of 5-15 cm are sprayed with the active compound preparation in such a way that the amounts of active compound per unit area desired in each case are applied. After three weeks, the degree of damage of the plants is evaluated in % damage in comparison with the development of the untreated control.
as §2, §3

Abutilon = assay: Post-emergence test, Abutilon; type: in vivo; conditions: 30 g per hectare, after three weeks
Protocol: as §1, §4, §2, §3

Chenopodium = assay: Post-emergence test, Chenopodium; type: in vivo; conditions: 30 g per hectare, after three weeks
Protocol: as §1, §4, §2, §3

Ipomoea = assay: Post-emergence test, Ipomoea; type: in vivo; conditions: 30 g per hectare, after three weeks
Protocol: as §1, §4, §2, §3

Solanum = assay: Post-emergence test, Solanum; type: in vivo; conditions: 30 g per hectare, after three weeks
Protocol: as §1, §4, §2, §3

Veronica = assay: Post-emergence test, Veronica; type: in vivo; conditions: 30 g per hectare, after three weeks
Protocol: as §1, §4, §2, §3

[3] = tested on: horseradish leaf beetle larvae Phaedon cochleariae; assay: Phaedon larvae test; type: in vivo; conditions: after 3 days, active compound concentration 0.1%, cabbage leaves dipped
Protocol: Solvent: 7 parts by weight of dimethylformamide
Emulsifier: 1 part by weight of alkylaryl polyglycol ether
To produce an expedient active compound preparation, 1 part by weight of active compound is mixed with the specified amount of solvent and the specified amount of emulsifier and the concentrate is diluted with water to the desired concentration.
Cabbage leaves (Brassica oleracea) are treated by dipping them into the active compound preparation of the desired concentration and populated with horseradish leaf beetle larvae Phaedon cochleariae, as long as the leaves are still moist.
After the desired time, the destruction is determined in %. In the determination, 100% denotes that all beetle larvae have been destroyed; 0% denotes that no beetle larvae have been destroyed.

melting point [°C]	Compound	degree of damage of the plants in % damage, wheat (wheat [1]) [%]	degree of damage of the plants in % damage, wheat (wheat [2]) [%]	degree of damage of the plants in % damage, Abutilon (Abutilon) [%]	degree of damage of the plants in % damage, Chenopodium (Chenopodium) [%]	degree of damage of the plants in % damage, Ipomoea (Ipomoea) [%]	degree of damage of the plants in % damage, Solanum (Solanum) [%]	degree of damage of the plants in % damage, Veronica (Veronica) [%]	degree of destruction [3] [%]
122	CCS(=O)(=O)N(c1cc(-n2c(=O)cc(C(F)(F)F)n(C)c2=S)c(F)cc1C#N)S(C)(=O)=O [Example 32, 1-(4-cyano-2-fluoro-5-(N-ethylsulphonyl-N-methylsulphonyl-amino)-phenyl)-3,6-dihydro-2-thio-6-oxo-3-methyl-4-trifluoromethyl-1(2H)-pyrimidine]								
68	CCS(=O)(=O)N(C)c1cc(-n2c(=O)cc(C(F)(F)F)n(C)c2=S)c(F)cc1C#N [Example 33, 1-(4-cyano-2-fluoro-5-(N-ethylsulphonyl-N-methyl-amino)-phenyl)-3,6-dihydro-2-thio-6-oxo-3-methyl-4-trifluoromethyl-1(2H)-pyrimidine]								
	CCS(=O)(=O)Nc1cc(-n2c(=O)cc(C(F)(F)F)n(C)c2=S)c(F)cc1C#N [Example 4, 1-(4-cyano-2-fluoro-5-ethylsulphonylamino-phenyl)-3,6-dihydro-2-thio-6-oxo-3-methyl-4-trifluoromethyl-1(2H)-pyrimidine]	0	5	100	100	100	100	100	
	Cn1c(C(F)(F)F)cc(=O)n(-c2cc(F)c(C#N)cc2F)c1=S [Example 3, 1-(4-cyano-2,5-difluoro-phenyl)-3,6-dihydro-2-thioxo-6-oxo-3-methyl-4-trifluoromethyl-1(2H)-pyrimidine]	0	5	100	100	100	100	100	100
